In general, IC50 refers to the concentration that inhibits the measured activity by half.

The structures appear in SMILES notation.

For the first experiment, the system named is HGC27 (Human Gastric Cancer Cell). In words: HGC27 cell growth inhibition (CellTiter-Glo). As to conditions: HGC27 cells, 24 hours, CellTiter-Glo; read-out: HGC27 CTG IC50. It is filed as cell-based. The method, then:
Biological Activity Detection of HGC27 (Human Gastric Cancer Cell) Cell Growth Inhibition
This detection method is used to evaluate the cellular level biological activity of the compounds of the present disclosure.
Harvest HGC27 cells (purchased from Chinese Academy of Sciences), resuspend in complete culture medium and adjust the cell density to 0.2×10^6 cells per ml. Add 100 μL of cell suspension to each well into a 96-well plate and incubate overnight in a 37° C., 5% CO2 incubator. Prepare the compound to be tested and add it to the cell plate so that the maximum concentration of the compound is 10 μM. Set 8 concentration points according to 3-fold dilution. At the same time, set up a 100% inhibition control well, that is, a well with no cells added and only an equal volume of complete culture medium; and a 0% inhibition control well, that is, a cell well with 0.1% DMSO added. The above cell plate was cultured at 37° C. and 5% CO2 for 24 hours. Take out the cell culture plate, add 25 μl CellTiter-Glo® Luminescent Cell Viability reagent (promega cat #G7573) to each well, incubate in the dark for 10 minutes, transfer 100 μL to a white plate, and use Molecular Devices SpectraMax i3 to detect chemiluminescence. Data processing uses the following formula to calculate the inhibition rate: compound inhibition rate=(0% inhibition of control well signal−compound treatment well signal)/(0% inhibition of control well signal−100% inhibition of control well signal)*100%. The calculated data were fitted using graphpad prism software with four parameters and the corresponding IC50 was calculated.
According to the above detection method, the biological activity of the compound of the present disclosure was evaluated at the cellular level. Wherein, CR8 is a literature compound, which was purchased from Shanghai Bide Pharmaceutical.
(Cellular ATP, detected with luciferase, serves as a proxy for viable cell number.)
In the case of `O[C@@H]1CCC[C@H]1Nc1nc(NCc2ccc(-c3ccccn3)cc2)ncc1C(F)(F)F` [Compound 152], the IC50 came out at 202 nM.

The same experiment, now with this note: Homo sapiens, HGC-27, 24 h, HGC27 cells, 24 hours, CellTiter-Glo; read-out: HGC27 CTG IC50.
With `OCc1cccc(-c2ccc(CNc3ncc(C(F)(F)F)c(OC4COC4)n3)cc2)n1` [Compound 18], the IC50 worked out at 281 nM.
Still for that read-out and setting: the value for `OCc1ccnc(-c2ccc(CNc3ncc(C(F)(F)F)c(OC4COC4)n3)cc2)c1` [Compound 43] was 266 nM; that for `O[C@H]1CC[C@H]1Nc1nc(NCc2ccc(-c3ccccn3)cc2)ncc1C(F)(F)F` [Compound 91] was 486 nM; that for `CN1CCC(Oc2nc(NCc3ccc(-c4ccccn4)cc3)ncc2C(F)(F)F)CC1` [Compound 35] was 379 nM.
Same read-out and setting: the value for `CC[C@H](CN)Nc1nc(NCc2ccc(-c3ccccn3)cc2)ncc1C(F)(F)F` [Compound 214] was 292 nM.
With `CS(=O)(=O)c1cncc(-c2nc(NCc3ccc(-c4ccccn4)cc3)ncc2C(F)(F)F)c1` [Compound 13], the IC50 came out at 307 nM.
On to `CC[C@@H](Nc1nc(NCc2ccc(-c3cc(CO)cc(C)n3)cc2)ncc1C(F)(F)F)C(N)=O` [Compound 161], for which the IC50 was 193 nM.
The same measure, in the same setting: the value for `FC(F)(F)c1cnc(NCc2ccc(-c3ccccn3)cc2)nc1OC1COC1` [Compound 1] was 385 nM.
The same measure, in the same setting: the value for `O[C@H]1CNCC1Oc1nc(NCc2ccc(-c3ccccn3)cc2)ncc1C(F)(F)F` (some centres unmarked) [Compound 164] was 386 nM; that for `C[C@@H](Oc1nc(NCc2ccc(-c3ccccn3)cc2)ncc1C(F)(F)F)C(C)(C)O` [Compound 167] was 49 nM; that for `C[C@@H](O)[C@@H](C)Oc1nc(NCc2ccc(-c3cc(CO)cc(CO)n3)cn2)ncc1C(F)(F)F` [Compound 182] was 68 nM.
Same read-out and setting: under `CC[C@@H](Nc1nc(NCc2ccc(-c3ccccn3)cc2)ncc1C(F)(F)F)[C@@H](C)O` [Compound 195] stands 25 nM; under `CC[C@H](O)[C@@H](C)Nc1nc(NCc2ccc(-c3ccccn3)cc2)ncc1C(F)(F)F` [Compound 199], 205 nM; under `CC[C@H](CO)Nc1nc(NCc2ccc(-c3ccccn3)cc2)c2ncn(C(C)C)c2n1` [CR8, reference compound], 429 nM.
As to `C[C@@H](O)[C@@H](CN1CCCC1)Nc1nc(NCc2ccc(-c3ccccn3)cc2)ncc1C(F)(F)F` [Compound 202], the IC50 was found to be 367 nM.
With `Cc1ccnc(-c2ccc(CNc3ncc(C(F)(F)F)c(OC4COC4)n3)cc2)c1` [Compound 40], the IC50 was determined as 341 nM.
Same read-out and setting: the value for `CNC(=O)[C@@H](C)Nc1nc(NCc2ccc(-c3ccccn3)cc2)ncc1C(F)(F)F` [Compound 193] was 39 nM; that for `C[C@@H](Nc1ncc(C(F)(F)F)c(OC2COC2)n1)c1ccc(-c2ccccn2)cc1` [Compound 119] was 479 nM.
On the same count and under the same terms, under `C[C@@H](Oc1nc(NCc2ccc(-c3ccccn3)cc2)ncc1C(F)(F)F)C(N)=O` [Compound 166] stands 24 nM.
With `NC(=O)[C@H](Nc1nc(NCc2ccc(-c3ccccn3)cc2)ncc1C(F)(F)F)C1CC1` [Compound 206], the IC50 came to 65 nM.
The same measure, in the same setting: the value for `C[C@@H](O)[C@@H](CO)Nc1nc(NCc2ccc(-c3cc(CO)cc(CO)n3)cn2)ncc1C(F)(F)F` [Compound 177] was 193 nM.
Still for that read-out and setting: the value for `Cc1cc(CO)cc(-c2ccc(CNc3ncc(C(F)(F)F)c(N[C@H](CO)[C@@H](C)O)n3)cc2)n1` [Compound 160] was 48 nM; that for `C[C@@H](O)[C@@H](C)Nc1nc(NCc2ccc(-c3cc(CO)cc(CO)n3)cc2)ncc1C(F)(F)F` [Compound 194] was 278 nM.
In the case of `COC[C@H](CO)Nc1nc(NCc2ccc(-c3ccccn3)cc2)ncc1C(F)(F)F` [Compound 158], the IC50 was 49 nM.
Still for that read-out and setting: under `COc1ccnc(-c2ccc(CNc3ncc(C(F)(F)F)c(OC4COC4)n3)cc2)c1` [Compound 114] stands 251 nM.
On the same count and under the same terms, under `CC[C@@H](Nc1nc(NCc2ccc(-c3ccccn3)cc2)ncc1C(F)(F)F)C(N)=O` [Compound 134] stands 370 nM.
Same read-out and setting: the value for `OC[C@H](Nc1nc(NCc2ccc(-c3ccccn3)cc2)ncc1C(F)(F)F)C1CC1` [Compound 159] was 45 nM.
Take `CC[C@H](CO)Oc1nc(NCc2ccc(-c3ccccn3)cc2)ncc1C(F)(F)F` [Compound 149]: the IC50 came to 238 nM.
Same read-out and setting: the value for `C[C@@H](O)[C@@H](CO)Nc1nc(NCc2ccc(-c3cccc(CO)n3)cc2)ncc1C(F)(F)F` [Compound 171] was 25 nM; that for `CC(C)(C)[C@H](CO)Nc1nc(NCc2ccc(-c3ccccn3)cc2)ncc1C(F)(F)F` [Compound 85] was 405 nM; that for `CCc1ccnc(-c2ccc(CNc3ncc(C(F)(F)F)c(OC4COC4)n3)cc2)c1` [Compound 135] was 427 nM.
Still for that read-out and setting: the value for `NS(=O)(=O)c1cncc(-c2nc(NCc3ccc(-c4ccccn4)cc3)ncc2C(F)(F)F)c1` [Compound 147] was 410 nM; that for `C[C@@H](Nc1nc(NCc2ccc(-c3ccccn3)cc2)ncc1C(F)(F)F)C(N)=O` [Compound 188] was 258 nM; that for `CC[C@@H](Nc1nc(NCc2ccc(-c3cc(CO)cc(CO)n3)cc2)ncc1C(F)(F)F)C(N)=O` [Compound 169] was 53 nM.
Same read-out and setting: the value for `CC[C@@H](Nc1nc(NCc2ccc(-c3cc(C)cc(CO)n3)cc2)ncc1C(F)(F)F)C(N)=O` [Compound 163] was 393 nM.

The same experiment, now with this note: Homo sapiens, HGC-27, 24 h, read-out: HGC27 CTG IC50.
On to `C[C@H](O)[C@@H](Nc1nc(NCc2ccc(-c3ccccn3)cc2)ncc1C(F)(F)F)C(N)=O` [Compound 212], for which the IC50 was 187 nM.

The target in another experiment is T1, Cyclin K (CCNK) (Homo sapiens, UniProt O75909+Q9NYV4).
T1 construct: total cell protein was extracted with RIPA cell lysis buffer; host or cells: HEK293
T1 sequence (O75909 whole entry): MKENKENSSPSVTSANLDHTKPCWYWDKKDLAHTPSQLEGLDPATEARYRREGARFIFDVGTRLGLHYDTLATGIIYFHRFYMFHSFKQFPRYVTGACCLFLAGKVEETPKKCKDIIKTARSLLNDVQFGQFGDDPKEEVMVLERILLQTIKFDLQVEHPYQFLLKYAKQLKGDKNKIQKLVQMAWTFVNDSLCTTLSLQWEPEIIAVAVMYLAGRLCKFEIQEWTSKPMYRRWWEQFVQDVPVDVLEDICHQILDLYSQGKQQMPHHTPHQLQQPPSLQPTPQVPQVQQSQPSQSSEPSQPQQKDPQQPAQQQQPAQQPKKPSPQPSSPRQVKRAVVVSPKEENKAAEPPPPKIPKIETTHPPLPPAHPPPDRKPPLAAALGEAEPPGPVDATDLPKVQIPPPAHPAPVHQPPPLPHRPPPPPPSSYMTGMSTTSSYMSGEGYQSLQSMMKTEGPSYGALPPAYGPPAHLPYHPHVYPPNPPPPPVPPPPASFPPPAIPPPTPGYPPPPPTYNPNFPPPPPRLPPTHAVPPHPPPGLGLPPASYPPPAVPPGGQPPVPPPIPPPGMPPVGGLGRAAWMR
T1 sequence (Q9NYV4 whole entry): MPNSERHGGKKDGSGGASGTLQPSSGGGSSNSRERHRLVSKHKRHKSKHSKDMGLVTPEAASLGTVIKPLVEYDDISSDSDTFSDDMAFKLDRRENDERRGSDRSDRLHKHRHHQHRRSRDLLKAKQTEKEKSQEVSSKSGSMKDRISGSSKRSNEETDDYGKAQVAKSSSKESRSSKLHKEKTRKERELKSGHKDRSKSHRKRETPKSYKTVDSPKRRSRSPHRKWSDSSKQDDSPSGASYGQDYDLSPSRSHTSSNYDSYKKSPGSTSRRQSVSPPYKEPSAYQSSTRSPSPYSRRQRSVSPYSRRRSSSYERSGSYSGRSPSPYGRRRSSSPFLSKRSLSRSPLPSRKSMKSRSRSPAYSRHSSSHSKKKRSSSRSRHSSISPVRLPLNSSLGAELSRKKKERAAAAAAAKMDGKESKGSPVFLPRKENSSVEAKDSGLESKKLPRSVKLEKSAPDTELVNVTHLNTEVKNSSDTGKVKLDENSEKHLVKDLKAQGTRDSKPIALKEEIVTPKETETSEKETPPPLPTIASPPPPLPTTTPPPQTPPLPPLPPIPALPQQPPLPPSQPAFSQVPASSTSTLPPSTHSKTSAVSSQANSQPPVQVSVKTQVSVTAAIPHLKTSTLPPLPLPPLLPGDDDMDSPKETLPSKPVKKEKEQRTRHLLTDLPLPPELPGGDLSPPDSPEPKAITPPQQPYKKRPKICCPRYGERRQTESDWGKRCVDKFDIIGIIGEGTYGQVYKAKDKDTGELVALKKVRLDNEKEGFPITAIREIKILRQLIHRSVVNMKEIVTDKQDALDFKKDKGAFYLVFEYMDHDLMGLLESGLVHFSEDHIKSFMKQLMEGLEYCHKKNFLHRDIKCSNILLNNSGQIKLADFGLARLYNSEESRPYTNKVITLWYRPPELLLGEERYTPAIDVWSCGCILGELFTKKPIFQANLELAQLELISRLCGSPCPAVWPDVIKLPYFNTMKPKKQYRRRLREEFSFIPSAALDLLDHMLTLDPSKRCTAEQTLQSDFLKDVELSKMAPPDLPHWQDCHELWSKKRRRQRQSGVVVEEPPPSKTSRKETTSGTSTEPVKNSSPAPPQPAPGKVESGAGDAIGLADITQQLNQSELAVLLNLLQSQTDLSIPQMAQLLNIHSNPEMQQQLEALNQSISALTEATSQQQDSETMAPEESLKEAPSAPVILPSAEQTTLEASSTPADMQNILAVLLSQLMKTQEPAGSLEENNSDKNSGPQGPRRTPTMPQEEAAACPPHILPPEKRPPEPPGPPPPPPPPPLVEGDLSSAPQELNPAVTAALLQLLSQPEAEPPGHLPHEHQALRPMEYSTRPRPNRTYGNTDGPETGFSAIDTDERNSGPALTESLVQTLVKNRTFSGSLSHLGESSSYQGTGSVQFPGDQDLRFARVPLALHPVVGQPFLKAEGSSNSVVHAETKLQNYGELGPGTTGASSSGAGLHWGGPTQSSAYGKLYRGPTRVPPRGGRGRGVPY
T1 sequence (Q16531 whole entry partner): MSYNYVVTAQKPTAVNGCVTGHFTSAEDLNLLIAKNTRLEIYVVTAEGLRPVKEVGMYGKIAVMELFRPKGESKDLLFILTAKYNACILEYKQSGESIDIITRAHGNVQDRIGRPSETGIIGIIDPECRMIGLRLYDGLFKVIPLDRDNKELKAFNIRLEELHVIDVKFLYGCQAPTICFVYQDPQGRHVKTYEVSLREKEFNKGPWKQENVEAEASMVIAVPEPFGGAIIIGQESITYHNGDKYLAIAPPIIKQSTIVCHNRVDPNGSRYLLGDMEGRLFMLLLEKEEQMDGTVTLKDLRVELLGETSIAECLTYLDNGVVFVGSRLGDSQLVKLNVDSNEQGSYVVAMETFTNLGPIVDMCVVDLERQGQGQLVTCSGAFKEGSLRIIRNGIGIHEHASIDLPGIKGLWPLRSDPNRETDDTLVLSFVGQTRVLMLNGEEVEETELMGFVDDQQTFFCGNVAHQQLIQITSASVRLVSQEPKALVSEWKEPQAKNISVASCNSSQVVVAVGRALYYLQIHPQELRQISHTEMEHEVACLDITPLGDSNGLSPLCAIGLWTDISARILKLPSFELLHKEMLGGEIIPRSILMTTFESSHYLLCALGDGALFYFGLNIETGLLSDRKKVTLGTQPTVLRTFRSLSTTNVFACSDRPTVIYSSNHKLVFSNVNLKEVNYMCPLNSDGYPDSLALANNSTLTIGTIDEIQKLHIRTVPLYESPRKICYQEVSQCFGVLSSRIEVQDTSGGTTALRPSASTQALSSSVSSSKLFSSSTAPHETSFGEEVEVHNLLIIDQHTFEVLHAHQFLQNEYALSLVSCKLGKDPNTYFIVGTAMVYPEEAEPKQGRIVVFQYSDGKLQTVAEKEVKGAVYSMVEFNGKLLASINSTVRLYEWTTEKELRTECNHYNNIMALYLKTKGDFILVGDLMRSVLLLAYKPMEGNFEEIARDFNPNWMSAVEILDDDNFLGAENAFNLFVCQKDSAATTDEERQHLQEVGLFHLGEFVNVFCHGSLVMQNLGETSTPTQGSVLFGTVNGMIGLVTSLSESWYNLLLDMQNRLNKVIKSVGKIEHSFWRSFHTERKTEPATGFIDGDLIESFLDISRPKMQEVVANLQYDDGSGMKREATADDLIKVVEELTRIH
Put plainly: Western blot detection of Cyclin K (CCNK) degradation. The format is cell-based. The note with it: HEK293 cells, 1 μM, 6 hours, compared with the control. The method, then:
Western Blot Detection of Cyclin K (CCNK) Degradation
Harvest HEK1293 cells (ATCC, cat #CRL-1573) and adjust the cell density to 1×10^6 cells per ml. Pour 1 ml of cell suspension per well into a 6-well plate and culture overnight. Take the compound stock solution and dilute it to the appropriate concentration with DMSO. Add the diluted compound into the cell wells using culture medium at a ratio of 1:1000 to ensure that the DMSO concentration in each well is 0.1%. At the same time, negative control wells were set, that is, complete culture medium containing 0.1% DMSO. After the compounds were treated and fixed at the concentrations shown in the figure and for different times, total cell protein was extracted with RIPA cell lysis buffer (Beyotime, cat #P0013B) added with PMSF. After protein quantification using the BCA protein quantification kit (Thermo Fisher, cat #A53225), each sample was subjected to subsequent SDS-PAGE and western blot experiments at a loading volume of 40 μg. The specific conditions are: after running the gel at 120V constant pressure for 90 minutes, transfer the film at a constant current of 320 mA for 60 minutes. Carry out antibody incubation according to the recommended dilution ratio and incubation time of the antibody. The information of the antibodies used in the experiment is as follows: Anti-GAPDH antibody (abcam, cat #ab9485), Anti-Cyclin K antibody (abcam, cat #ab85854), Goat anti-Rabbit IgG (H+L) Cross-Adsorbed Secondary Antibody, HRP (invitrogen, cat #G-21234). ECL luminescence solution (Thermo Fisher, cat #32209) was used to develop color and luminescence. A gel imaging system was used to analyze the final results.
According to the above detection method, some compounds of the present disclosure were evaluated.
(Immunoblotting shows a protein as a band on a membrane.)
`FC(F)(F)c1cnc(NCc2ccc(-c3cccnc3)cc2)nc1OC1COC1` [Compound 5]: the “degradation of Cyclin K (FIG. 2)” value is given as “significantly induce the degradation of Cyclin K”.
Same read-out and setting: the value for `OCc1cccc(-c2ccc(CNc3ncc(C(F)(F)F)c(OC4COC4)n3)cc2)n1` [Compound 18] was “significantly induce the degradation of Cyclin K”.
On to `Clc1cnc(NCc2ccc(-c3ccccn3)cc2)nc1OC1COC1` [Compound 3], for which the “degradation of Cyclin K (FIG. 2)” value is listed as “significantly induce the degradation of Cyclin K”.
As for `FC(F)(F)c1cnc(NCc2ccc(-c3ccccn3)cn2)nc1OC1COC1` [Compound 4], the “degradation of Cyclin K (FIG. 2)” value is “significantly induce the degradation of Cyclin K”.
Consider `CS(=O)(=O)c1cncc(-c2nc(NCc3ccc(-c4ccccn4)cc3)ncc2C(F)(F)F)c1` [Compound 13], for which the “degradation of Cyclin K (FIG. 2)” value is on record as “significantly induce the degradation of Cyclin K”.
As for `FC(F)(F)c1cnc(NCc2ccc(-c3ccccn3)cc2)nc1NC1COC1` [Compound 8], the “degradation of Cyclin K (FIG. 2)” value is recorded as “significantly induce the degradation of Cyclin K”.

The experiment is the same for the next values; noted with them: HEK293 cells; 0.1, 0.3, 1 μM; 6 h, 14 h, 24 h; compared with the control.
Turning to `FC(F)(F)c1cnc(NCc2ccc(-c3ccccn3)cc2)nc1OC1COC1` [Compound 1], the “degradation of Cyclin K (FIG. 1)” value is on record as “significantly induce the degradation of Cyclin K”.

(Values after US20240368147A1, “CYCLIN K DEGRADER” (ADLAI NORTYE BIOPHARMA CO., LTD., priority 2021, published 2024).)
